The values that follow come from patent publication US20230278981A1, “DICHLOROPHENOL HSD17B13 INHIBITORS AND USES THEREOF” (INIPHARM, INC., priority 2020, published 2023).

The target of the assay is HSD17B13 (Homo sapiens (Human), UniProt Q7Z5P4). Briefly: LC/MS estrone detection assay: conversion of estradiol to estrone by HSD17B13. Particulars: 4 μM estradiol, 6 mM NAD+, 30 nM HSD17B13 enzyme (E. coli expressed His-tagged), 2 hours at 26.5° C. Format: biochemical. How it is done:
The liquid chromatography/mass spectrometry (LC/MS) estrone detection assay monitors the conversion of estradiol to estrone by HSD17B13. This assay was undertaken in a 96wp format (Eppendorf deep well Plate 96/500) in an 80 μl reaction volume containing: 4 μM of Estradiol (E2; Cayman; Ser. No. 10/006,315), 6 mM NAD+(Sigma; #N0623) and 30 nM HSD17B13 enzyme (in-house; E. coli expressed His-tagged, purified, soluble protein) in a reaction containing […] potassium phosphate buffer pH 7.4, with 0.5% vehicle (DMSO). Reactions were incubated for 2 hours at 26.5° C., and estradiol (E2) conversion to estrone (E1) was quantitated by LC-MS/MS based analyte detection for both E2 and E1 using LCMS grade reagents.
Reactions were terminated by the addition of two volumes of acetonitrile (MeCN; LCMS grade; CAS #75/05/8) containing deuterated (D4)-E1 used as internal standard (Clear Synth; #CS-T-54273; 500 ng/mL final concentration). Samples were applied to pre-prepared Bond Elut-C18 extraction cartridges (3 mL; Agilent; Ser. No. 12/102,028), washed and eluted in MeCN. Eluates were dried under nitrogen and re-suspended in 60% methanol (LCMS grade methanol; CAS #67/56/1) before submission for analysis. Aqueous linearity for E2 and E1 were included for quantification.
Analysis of samples was undertaken on a XBridge BEH C18 column (Waters; #186003033) using 0.1% Diethyl Amine in MeCN (mobile phase A; DEA CAS #109-89-7) and 0.1% Diethyl Amine in milli-Q water (mobile phase B) in a 3 min gradient allowing 25% B. Analytes were detected in negative mode using MRM analysis, with E2 having a RT of 1.85 min and E1 having a RT of 2 min. Activity of the enzyme, in the absence of NAD^+, was used to evaluate specificity of conversion. Enzyme activity in the presence of test samples was expressed as a percentage of the uninhibited enzyme activity, and plotted versus inhibitor concentration. Non-linear regression was performed using a four-parameter logistic model and GraphPad Prism software (GraphPad Software, La Jolla, Calif.). All assessments were undertaken in duplicate evaluations and pooled during extraction process and subsequently injected as duplicates for LC-MS/MS analysis.

Chain of HSD17B13 (Q7Z5P4 20-300): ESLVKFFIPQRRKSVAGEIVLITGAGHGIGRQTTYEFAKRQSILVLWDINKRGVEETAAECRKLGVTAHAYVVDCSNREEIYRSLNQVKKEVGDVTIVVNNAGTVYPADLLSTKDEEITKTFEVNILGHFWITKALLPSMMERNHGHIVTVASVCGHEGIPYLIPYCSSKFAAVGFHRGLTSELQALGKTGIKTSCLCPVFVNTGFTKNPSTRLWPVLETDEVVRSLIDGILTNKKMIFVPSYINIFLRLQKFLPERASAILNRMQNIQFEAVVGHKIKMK

Molecule `Cn1ccc(Cn2cnc3cccc(NC(=O)c4cc(Cl)c(O)c(Cl)c4)c3c2=O)n1` [Example 56, 3,5-dichloro-4-hydroxy-N-{3-[(1-methyl-1H-pyrazol-3-yl)methyl]-4-oxo-3,4-dihydroquinazolin-5-yl}benzamide] displayed an IC50 of 500 to 1000 nM.

`CC(C)(C)CCn1cnc2cccc(NC(=O)c3cc(Cl)c(O)c(Cl)c3)c2c1=O` [Example 57, 3,5-dichloro-N-(3-(3,3-dimethylbutyl)-4-oxo-3,4-dihydroquinazolin-5-yl)-4-hydroxybenzamide]: the IC50 was 100 to 500 nM.

Molecule `O=C(Nc1cccc2ncn(Cc3ccc(OCCO)cc3)c(=O)c12)c1cc(Cl)c(O)c(Cl)c1` [Example 58, 3,5-dichloro-4-hydroxy-N-(3-(4-(2-hydroxyethoxy)benzyl)-4-oxo-3,4-dihydroquinazolin-5-yl)benzamide] came in with an IC50 of 100 to 500 nM.

In turn, `CS(=O)(=O)c1ccc(Cn2cnc3cccc(NC(=O)c4cc(Cl)c(O)c(Cl)c4)c3c2=O)cc1` [Example 59, 3,5-dichloro-4-hydroxy-N-(3-(4-(methylsulfonyl)benzyl)-4-oxo-3,4-dihydroquinazolin-5-yl)benzamide] returned a half-maximal inhibitory concentration (IC50) of 1000 to 10000 nM.

Molecule `CS(=O)(=O)c1cccc(Cn2cnc3cccc(NC(=O)c4cc(Cl)c(O)c(Cl)c4)c3c2=O)c1` [Example 60, 3,5-dichloro-4-hydroxy-N-(3-(3-(methylsulfonyl)benzyl)-4-oxo-3,4-dihydroquinazolin-5-yl)benzamide.] yielded an IC50 of 500 to 1000 nM.

For `CC(C)(C)CCn1cnc2cccc(NC(=O)c3cc(Cl)c(O)c(Cl)n3)c2c1=O` [Example 61, 4,6-dichloro-N-(3-(3,3-dimethylbutyl)-4-oxo-3,4-dihydroquinazolin-5-yl)-5-hydroxypicolinamide], the IC50 was 100 to 500 nM.

In turn, `CC(C)(C)n1ccc(Cn2cnc3cccc(NC(=O)c4cc(Cl)c(O)c(Cl)n4)c3c2=O)n1` [Example 62, N-(3-((1-(tert-butyl)-1H-pyrazol-3-yl)methyl)-4-oxo-3,4-dihydroquinazolin-5-yl)-4,6-dichloro-5-hydroxypicolinamide] came in with an IC50 of 100 to 500 nM.

`O=C(Nc1cccc2ncn(Cc3ccc(N4CCS(=O)(=O)CC4)cc3)c(=O)c12)c1cc(Cl)c(O)c(Cl)c1` [Example 63, 3,5-dichloro-N-(3-(4-(1,1-dioxidothiomorpholino)benzyl)-4-oxo-3,4-dihydroquinazolin-5-yl)-4-hydroxybenzamide] gave an IC50 of 100 to 500 nM.

For `Cc1nc2cccc(NC(=O)c3cc(Cl)c(O)c(Cl)c3)c2c(=O)n1Cc1ccccc1OC(F)(F)F` [Example 64, 3,5-dichloro-4-hydroxy-N-(2-methyl-4-oxo-3-(2-(trifluoromethoxy)benzyl)-3,4-dihydroquinazolin-5-yl)benzamide], the IC50 is at most 100 nM.

Take `O=C(Nc1cccc2ncn(Cc3cccc(OC(F)(F)F)c3)c(=O)c12)c1ccc(Cl)c(O)c1Cl` [Example 65, 2,4-dichloro-3-hydroxy-N-(4-oxo-3-(3-(trifluoromethoxy)benzyl)-3,4-dihydroquinazolin-5-yl)benzamide]: the IC50 was in the range of 1000 to 10000 nM.

`N#Cc1ccccc1Cn1cnc2cccc(NC(=O)c3cc(Cl)c(O)c(Cl)n3)c2c1=O` [Example 66, 4,6-dichloro-N-(3-(2-cyanobenzyl)-4-oxo-3,4-dihydroquinazolin-5-yl)-5-hydroxypicolinamide]: the IC50 was 100 to 500 nM.

Molecule `O=C(Nc1cccc2ncn(Cc3n[nH]c4ccccc34)c(=O)c12)c1cc(Cl)c(O)c(Cl)c1` [Example 67, N-(3-((1H-indazol-3-yl)methyl)-4-oxo-3,4-dihydroquinazolin-5-yl)-3,5-dichloro-4-hydroxybenzamide] displayed an IC50 of at most 100 nM.

In turn, `N#Cc1cc(C(=O)Nc2cccc3ncn(Cc4cccc(C(F)(F)F)c4)c(=O)c23)cc(Cl)c1O` [Example 68, 3-chloro-5-cyano-4-hydroxy-N-(4-oxo-3-(3-(trifluoromethyl)benzyl)-3,4-dihydroquinazolin-5-yl)benzamide] returned an IC50 of 100 to 500 nM.

On to `O=C(Nc1cccnc1C(=O)NCc1ccccc1OC(F)(F)F)c1cc(Cl)c(O)c(Cl)c1` [Example 69, 3-(3,5-dichloro-4-hydroxybenzamido)-N-(2-(trifluoromethoxy)benzyl) picolinamide], for which the IC50 lay within 100 to 500 nM.

For the molecule `O=C(Nc1cccc2nc(C(F)(F)F)n(Cc3ccccc3OC(F)(F)F)c(=O)c12)c1cc(Cl)c(O)c(Cl)c1` [Example 70, 3,5-dichloro-4-hydroxy-N-(4-oxo-3-(2-(trifluoromethoxy)benzyl)-2-(trifluoromethyl)-3,4-dihydroquinazolin-5-yl)benzamide], the IC50 was 100 to 500 nM.

`CC(C)(C)CCNC(=O)c1ccccc1NC(=O)c1cc(Cl)c(O)c(Cl)c1` [Example 71, 3,5-dichloro-N-(2-((3,3-dimethylbutyl)carbamoyl)phenyl)-4-hydroxybenzamide] showed an IC50 of 100 to 500 nM.

`O=C(Nc1cccc2ncn(C3(c4ccccc4F)CC3)c(=O)c12)c1cc(Cl)c(O)c(Cl)n1` [Example 72, 4,6-dichloro-N-(3-(1-(2-fluorophenyl)cyclopropyl)-4-oxo-3,4-dihydroquinazolin-5-yl)-5-hydroxypicolinamide] showed an IC50 of 100 to 500 nM.

Take `O=C(Nc1cnccc1C(=O)NCc1ccccc1OC(F)(F)F)c1cc(Cl)c(O)c(Cl)c1` [Example 73, 3-(3,5-dichloro-4-hydroxybenzamido)-N-(2-(trifluoromethoxy)benzyl) isonicotinamide]: the IC50 was in the range of 100 to 500 nM.

The molecule `CC(c1ccccc1OC(F)(F)F)n1cnc2cccc(NC(=O)c3cc(Cl)c(O)c(Cl)c3)c2c1=O` (stereo not drawn) [Example 74, 3,5-dichloro-4-hydroxy-N-(4-oxo-3-(1-(2-(trifluoromethoxy)phenyl)ethyl)-3,4-dihydroquinazolin-5-yl)benzamide] returned an IC50 of 100 to 500 nM.

Turning to `O=C(Nc1cccc2ncn(Cc3ncccc3C(F)(F)F)c(=O)c12)c1cc(Cl)c(O)c(Cl)c1` [Example 75, 3,5-dichloro-4-hydroxy-N-(4-oxo-3-((3-(trifluoromethyl)pyridin-2-yl)methyl)-3,4-dihydroquinazolin-5-yl)benzamide], the IC50 was at most 100 nM.

`O=C(Nc1cccc2ncn(Cc3ccn(-c4ccccc4F)n3)c(=O)c12)c1cc(Cl)c(O)c(Cl)c1` [Example 76, 3,5-dichloro-N-(3-((1-(2-fluorophenyl)-1H-pyrazol-3-yl)methyl)-4-oxo-3,4-dihydroquinazolin-5-yl)-4-hydroxybenzamide] gave an IC50 of at most 100 nM.

Molecule `O=C(Nc1cccc2ncn(Cc3ccn(-c4ccccc4)n3)c(=O)c12)c1cc(Cl)c(O)c(Cl)c1` [Example 77, 3,5-dichloro-4-hydroxy-N-(4-oxo-3-((1-phenyl-1H-pyrazol-3-yl)methyl)-3,4-dihydroquinazolin-5-yl)benzamide] had an IC50 of 100 to 500 nM.

Consider `O=C(Nc1cccc2ncn(C(c3ccccc3)c3ccccc3)c(=O)c12)c1cc(Cl)c(O)c(Cl)c1` [Example 78, N-(3-benzhydryl-4-oxo-3,4-dihydroquinazolin-5-yl)-3,5-dichloro-4-hydroxybenzamide], for which the half-inhibitory concentration (IC50) is at most 100 nM.

In turn, `CS(=O)(=O)c1ccccc1Cn1cnc2cccc(NC(=O)c3cc(Cl)c(O)c(Cl)n3)c2c1=O` [Example 79, 4,6-dichloro-5-hydroxy-N-(3-(2-(methylsulfonyl)benzyl)-4-oxo-3,4-dihydroquinazolin-5-yl)picolinamide] registered an IC50 of 500 to 1000 nM.
